The source of these data is doi:10.1101/615575v1 (biorxiv, 2019).

The Kd is a measure of binding affinity in units of concentration. Lower therefore signals tighter binding.

In this assay the target is PdtaS (PdtaS-EGFP; mtPdtaS; Rv3220c) (Mycobacterium tuberculosis, UniProt P9WGL5). As to the kind of experiment: biochemical.
Sequence of PdtaS (PdtaS-EGFP; mtPdtaS; Rv3220c) (P9WGL5 whole entry): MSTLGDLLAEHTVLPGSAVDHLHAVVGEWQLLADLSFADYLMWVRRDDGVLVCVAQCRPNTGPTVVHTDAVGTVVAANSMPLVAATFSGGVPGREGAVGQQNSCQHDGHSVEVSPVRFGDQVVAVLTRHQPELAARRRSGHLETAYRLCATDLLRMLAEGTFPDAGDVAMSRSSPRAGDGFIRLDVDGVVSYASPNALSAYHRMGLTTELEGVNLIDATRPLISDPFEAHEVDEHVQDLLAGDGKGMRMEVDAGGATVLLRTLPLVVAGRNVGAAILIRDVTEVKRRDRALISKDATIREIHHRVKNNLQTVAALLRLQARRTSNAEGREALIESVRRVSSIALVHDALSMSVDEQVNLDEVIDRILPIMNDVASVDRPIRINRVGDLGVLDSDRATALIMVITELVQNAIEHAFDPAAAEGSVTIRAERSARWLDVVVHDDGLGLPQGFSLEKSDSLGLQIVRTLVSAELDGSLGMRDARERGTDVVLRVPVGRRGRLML

With `Nc1nc2c(ncn2[C@@H]2O[C@@H]3CO[P@](=O)(O)O[C@H]4[C@@H](O)[C@H](n5cnc6c(=O)[nH]c(N)nc65)O[C@@H]4CO[P@](=O)(O)O[C@H]3[C@H]2O)c(=O)[nH]1` [c-di-GMP], the affinity, expressed as Kd, was 326 ± 107 nM.
